The values below come from article PMC5675004 (Cancer cell, 2015).

The test system of assay [1] is PPT CGNPs infected with SMO-WT and Cre. In words: PPT CGNP proliferation, methyl-[3H]-thymidine incorporation. Type of assay: cell-based, mouse. The following applies: for proliferation in the presence of SMO inhibitor: 500 nM of compound. In general terms: Dividing cells build labelled thymidine or BrdU into new DNA.
The subject of assay [2] is PPT CGNPs expressing vismodegib-resistant SMO mutants. The description is as above. Type of assay: cell-based, mouse. The following applies: for proliferation in the presence of SMO inhibitor: 500 nM of compound, SMO-mutant expressing cells.
The next assay concerns the target SMO-N219D (Homo sapiens, UniProt Q99835, N219D). As to the kind of experiment: Gli-luciferase based Hh reporter assay. Type of assay: cell-based. The following applies: 1 μM vismodegib, C3H10T½ cells. For orientation: In a reporter assay the amount or activity of a reporter protein is the signal.
The next assay deals with SMO-D384N (Homo sapiens, UniProt Q99835, D384N). In words: Gli-luciferase based Hh reporter assay. It counts as cell-based. The following applies: 1 μM vismodegib, C3H10T½ cells.
SMO-D384N, sequence (Q99835 28-787 D384N): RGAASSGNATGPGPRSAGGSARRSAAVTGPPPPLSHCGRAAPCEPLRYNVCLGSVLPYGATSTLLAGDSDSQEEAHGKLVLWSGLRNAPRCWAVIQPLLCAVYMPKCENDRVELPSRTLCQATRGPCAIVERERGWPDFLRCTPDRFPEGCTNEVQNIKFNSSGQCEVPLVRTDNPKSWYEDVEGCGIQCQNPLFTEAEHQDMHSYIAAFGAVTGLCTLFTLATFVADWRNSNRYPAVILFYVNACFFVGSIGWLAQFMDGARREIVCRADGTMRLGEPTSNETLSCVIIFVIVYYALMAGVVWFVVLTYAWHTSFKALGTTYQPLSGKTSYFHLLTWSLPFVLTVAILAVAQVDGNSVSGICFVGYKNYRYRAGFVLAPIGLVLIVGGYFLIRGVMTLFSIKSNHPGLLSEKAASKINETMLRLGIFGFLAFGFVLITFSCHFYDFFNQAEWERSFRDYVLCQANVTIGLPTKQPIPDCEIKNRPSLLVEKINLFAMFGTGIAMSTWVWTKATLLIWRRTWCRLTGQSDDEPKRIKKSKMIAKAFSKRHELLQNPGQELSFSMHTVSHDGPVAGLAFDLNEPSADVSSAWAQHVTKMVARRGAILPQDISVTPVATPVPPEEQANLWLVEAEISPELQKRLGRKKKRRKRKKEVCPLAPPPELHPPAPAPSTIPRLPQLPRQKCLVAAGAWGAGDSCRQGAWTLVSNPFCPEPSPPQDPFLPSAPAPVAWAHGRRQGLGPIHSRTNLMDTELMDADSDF
The next assay has as its target SMO-S387N (Homo sapiens, UniProt Q99835, S387N). As to the kind of experiment: Gli-luciferase based Hh reporter assay. Type of assay: cell-based. The following applies: 1 μM vismodegib, C3H10T½ cells.
The next assay has as its target SMO-I408V (Homo sapiens, UniProt Q99835, I408V). As to the kind of experiment: [3H]-vismodegib binding to transfected HEK-293 cells. The following applies: compared with SMO-WT at similar cell surface levels.
For the next assay, the system named is activating SMO mutants. The description is as above. The following applies: all activating mutants tested, cell surface expression comparable to SMO-WT.
Assay [3] deals with PPT CGNPs infected with SMO DBP mutants. As to the kind of experiment: PPT CGNP proliferation, methyl-[3H]-thymidine incorporation. It counts as cell-based, mouse. The following applies: high levels of vismodegib (>1 μM).
For assay [4], the system named is PPT CGNPs infected with SMO-C469Y. The assay is described as above. The following applies: 5 μM vismodegib. It counts as cell-based, mouse.
The test system of assay [5] is SMO-T241M expressing CGNPs. Described as above. Type of assay: cell-based, mouse. The following applies: vismodegib dose response after removal of SHH ligand.
The test system of assay [6] is SMO-A459V expressing CGNPs. The assay is described as above. It counts as cell-based, mouse. The following applies: vismodegib dose response after removal of SHH ligand.
For assay [7], the system named is SMO-W535L expressing CGNPs. The assay is described as above. The following applies: vismodegib dose response after removal of SHH ligand. Type of assay: cell-based, mouse.
A further assay has as its system SMO-D473H. The following applies: mutation from relapsed metastatic MB; ref Yauch et al., 2009; cited from earlier work.
A further assay deals with advanced BCC patients. The following applies: ref Chang and Oro, 2012; cited from earlier work.

SMO-N219D, sequence (Q99835 28-787 N219D): as the sequence (Q99835 28-787 D384N) above, with N192D, N357D counted along it
SMO-I408V, sequence (Q99835 28-787 I408V): as the sequence (Q99835 28-787 D384N) above, with N357D, I381V counted along it
SMO-S387N, sequence (Q99835 28-787 S387N): as the sequence (Q99835 28-787 D384N) above, with N357D, S360N counted along it

For `Cc1c(C(=O)Nc2ccc(N3C[C@@H](C)O[C@@H](C)C3)nc2)cccc1-c1ccc(OC(F)(F)F)cc1` [LDE225, sonidegib], the “proliferation in the presence of SMO inhibitor” value in assay [1] is listed as “similarly inhibited the proliferation”; in assay [2], “continued to proliferate, albeit to differing extents”.
For `CS(=O)(=O)c1ccc(C(=O)Nc2ccc(Cl)c(-c3ccccn3)c2)c(Cl)c1` [vismodegib], the “sensitivity to vismodegib compared to SMO-WT” value on SMO-N219D, at SMO-D384N and at SMO-S387N was “reduced sensitivity” throughout. Besides, at SMO-I408V, the “[3H]-vismodegib binding” value is listed as “impaired vismodegib binding”. Moreover, in the assay with activating SMO mutants, the vismodegib binding entry is on record as “impaired vismodegib binding”. Further, the IC50 in assay [1] (Mus musculus, read-out: IC50, proliferation) was approximately 22 nM. Also, the “concentration at which proliferation was maximally inhibited” value in assay [1] (after removal of SHH ligand) stood at 100 nM. Besides, the “proliferation in the presence of vismodegib” value is given as “continuing to proliferate at high levels of vismodegib” in [3]; “continued to proliferate at near untreated levels” in assay [4]; “continued to proliferate at high concentrations of vismodegib” in [5]; “continued to proliferate at high concentrations of vismodegib” in assay [6]; “continued to proliferate at high concentrations of vismodegib” in assay [7]. Besides, the “drug binding in vitro” value with SMO-D473H is recorded as “abrogate drug binding”. Besides, the “estimated incidence of secondary, or acquired, resistance in BCC” value with advanced BCC patients is on record as ~ 20 % per year.
Regarding `Cc1sc2c(c1C)C(c1ccc(Cl)cc1)=N[C@@H](CC(=O)OC(C)(C)C)c1nnc(C)n1-2` [JQ1], the “proliferation in the presence of bromodomain inhibitor” value in [2] (1 μM JQ1) is “reduced proliferation”.
For `CN(C(=O)c1ccc(F)cc1C(F)(F)F)C1CCN(c2nnc(-c3ccnn3C)c3ccccc23)CC1` [LY2940680], the “proliferation in the presence of SMO inhibitor” value in assay [1] is on record as “similarly inhibited the proliferation”; in [2], “continued to proliferate, albeit to differing extents”.
